Experimental findings from PubChem BioAssay AID256 (DTP/NCI, 2004) are described below.

Values joined by “and” are separate entries in the source; they are usually repeats but may differ in a detail not shown here. Equal values may be shown once. Toxic doses and inconclusive results are not listed.

The test system of this assay is CD2F1 mice, L1210 leukemia ip, survival T/C. In words: NCI In Vivo Anticancer Drug Screen. Data for tumor model L1210 Leukemia (intraperitoneal) in CD2F1 (CDF1) mice. Particulars: higher = longer survival. In outline: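 In this screen, transplantable tumors were grown in mice given either the compound or its vehicle. Results were expressed as the treated measurement relative to the control measurement.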

[1] abbreviates: endpoint: mean survival time, dose: 100.0 mg/kg/injection, schedule: Q04DX003 (ip), vehicle: saline.
Where [2] appears, read: endpoint: mean survival time, dose: 100.0 mg/kg/injection, schedule: Q04DX003 (ip), vehicle: saline with Tween-80.
Setting [3] is: endpoint: mean survival time, dose: 200.0 mg/kg/injection, schedule: Q04DX003 (ip), vehicle: saline with Tween-80.
Setting [4] is: endpoint: mean survival time, dose: 400.0 mg/kg/injection, schedule: Q04DX003 (ip), vehicle: saline with Tween-80.
Where [5] appears, read: endpoint: mean survival time, dose: 100.0 mg/kg/injection, schedule: Q04DX002 (ip), vehicle: saline with Tween-80.
Setting [6] is: endpoint: mean survival time, dose: 200.0 mg/kg/injection, schedule: Q04DX002 (ip), vehicle: saline with Tween-80.
Setting [7] is: endpoint: mean survival time, dose: 400.0 mg/kg/injection, schedule: Q04DX002 (ip), vehicle: saline with Tween-80.
Where [8] appears, read: endpoint: mean survival time, dose: 100.0 mg/kg/injection, schedule: Q04DX003 (ip), vehicle: Klucel (hydroxypropylcellulose) (HPC).
The mark [9] stands for this setting: endpoint: mean survival time, dose: 200.0 mg/kg/injection, schedule: Q04DX003 (ip), vehicle: Klucel (hydroxypropylcellulose) (HPC).

As to `CCN1C(=O)CSC1=S`, the T/C (endpoint: mean survival time, dose: 50.0 mg/kg/injection, schedule: Q01DX009 (ip), vehicle: other) is 88 % of control; the T/C (endpoint: mean survival time, dose: 100.0 mg/kg/injection, schedule: Q01DX001 (ip), vehicle: other) was 94 % of control; the T/C (endpoint: mean survival time, dose: 100.0 mg/kg/injection, schedule: Q01DX009 (ip), vehicle: other) is 108 % of control; the T/C (endpoint: mean survival time, dose: 100.0 mg/kg/injection, schedule: Q04DX003 (ip), vehicle: other) is 95 % of control; the T/C (endpoint: mean survival time, dose: 200.0 mg/kg/injection, schedule: Q01DX001 (ip), vehicle: other) was 93 % of control; the T/C (endpoint: mean survival time, dose: 200.0 mg/kg/injection, schedule: Q01DX009 (ip), vehicle: other) was 95 % of control. The T/C is 93 % of control (endpoint: mean survival time, dose: 200.0 mg/kg/injection, schedule: Q04DX003 (ip), vehicle: other) and 91 % of control (endpoint: mean survival time, dose: 400.0 mg/kg/injection, schedule: Q01DX001 (ip), vehicle: other).
Turning to `CN1CCCC1CN1c2ccccc2Sc2ccccc21` (stereo not drawn), the T/C under setting [1] is 102 % of control.
`c1ccc(C2=Nc3ccccc3C(c3ccccc3)=Nc3ccccc32)cc1`: the T/C was 109 % of control under setting [2], 91 % of control under setting [3] and 101 % of control under setting [4].
In the case of `c1ccc(SSc2ccccc2)cc1`, under setting [2], the T/C is 100 % of control.
As for `Nc1ccc(CCc2nc(N)[nH]c(=O)c2-c2ccc(Cl)cc2)cc1`, the T/C was 100 % of control (endpoint: mean survival time, dose: 37.5 mg/kg/injection, schedule: Q01DX001 (ip), vehicle: saline with Tween-80); 91 % of control (endpoint: mean survival time, dose: 75.0 mg/kg/injection, schedule: Q01DX001 (ip), vehicle: saline with Tween-80); 94 % of control (endpoint: mean survival time, dose: 150.0 mg/kg/injection, schedule: Q01DX001 (ip), vehicle: saline with Tween-80).
For the compound `COc1ccc(/C(C)=N/N=C(\C)c2ccc(OC)cc2)cc1`, the T/C (endpoint: mean survival time, dose: 25.0 mg/kg/injection, schedule: Q04DX003 (ip), vehicle: saline with Tween-80) is 105 % of control; the T/C (endpoint: mean survival time, dose: 50.0 mg/kg/injection, schedule: Q04DX003 (ip), vehicle: saline with Tween-80) is 102 % of control; the T/C under setting [2] was 102 % of control.
As for `Nc1ncnc2c1ncn2C1CC(O)C(CO)O1` (stereo not drawn), the T/C (endpoint: mean survival time, dose: 600.0 mg/kg/injection, schedule: Q03HX024 (ip), vehicle: saline with Tween-80) was 97 % of control and the T/C (endpoint: mean survival time, dose: 900.0 mg/kg/injection, schedule: Q03HX024 (ip), vehicle: saline with Tween-80) was 103 % of control.
With `O=[N+]([O-])c1cccc2ccccc12`, the T/C reads like this: under setting [1], 101 % of control; (endpoint: mean survival time, dose: 200.0 mg/kg/injection, schedule: Q04DX003 (ip), vehicle: saline) 103 % of control; (endpoint: mean survival time, dose: 400.0 mg/kg/injection, schedule: Q04DX003 (ip), vehicle: saline) 86 % of control.
For `O=C(/C=C/c1ccco1)c1cccnc1`, the T/C is, setting by setting: (endpoint: mean survival time, dose: 100.0 mg/kg/injection, schedule: Q01DX001 (ip), vehicle: saline) 94 % of control; (endpoint: mean survival time, dose: 200.0 mg/kg/injection, schedule: Q01DX001 (ip), vehicle: saline) 100 % of control; (endpoint: mean survival time, dose: 400.0 mg/kg/injection, schedule: Q01DX001 (ip), vehicle: saline) 100 % of control.
Consider `O=C1C=CC(=NCl)C=C1`, for which the T/C by setting is: (endpoint: mean survival time, dose: 2.5 mg/kg/injection, schedule: Q04DX003 (ip), vehicle: saline with Tween-80) 100 % of control; (endpoint: mean survival time, dose: 5.0 mg/kg/injection, schedule: Q04DX003 (ip), vehicle: saline with Tween-80) 110 % of control.
Turning to `O=C1OC(=O)C2C(c3ccccc3)=C3C(=C(c4ccccc4)C12)c1cccc2cccc3c12` (stereo not drawn), the T/C reads like this: under setting [5], 94 % of control; under setting [6], 97 % of control; under setting [7], 94 % of control.
Regarding `CCc1nc(-c2ccccc2)c(-c2ccccc2)[nH]1`, the T/C runs as follows: under setting [2], 90 % of control; under setting [3], 92 % of control; under setting [4], 90 % of control.
Turning to `Cc1c(Cl)cc(Cl)c(N)c1Cl`, the T/C is 93 % of control (endpoint: mean survival time, dose: 100.0 mg/kg/injection, schedule: Q01DX009 (ip), vehicle: saline with Tween-80); 97 % of control (endpoint: mean survival time, dose: 200.0 mg/kg/injection, schedule: Q01DX009 (ip), vehicle: saline with Tween-80); 97 % of control (endpoint: mean survival time, dose: 400.0 mg/kg/injection, schedule: Q01DX009 (ip), vehicle: saline with Tween-80).
Turning to `CC(=O)Oc1ccc(OC(C)=O)c2c1C(=O)C=CC2=O`, the T/C reads like this: (endpoint: mean survival time, dose: 0.78 mg/kg/injection, schedule: Q04DX002 (ip), vehicle: alcohol) 92 % of control; (endpoint: mean survival time, dose: 3.12 mg/kg/injection, schedule: Q04DX002 (ip), vehicle: alcohol) 86 % of control.
Regarding `CC1=CCCC2C1(C)CCC(C)C2(C)Cc1cc(O)ccc1O` (stereo not drawn), the T/C was 107 % of control (endpoint: median survival time, dose: 6.25 mg/kg/injection, schedule: Q01DX005 (ip), vehicle: Klucel (hydroxypropylcellulose) (HPC)); 103 % of control (endpoint: median survival time, dose: 12.5 mg/kg/injection, schedule: Q01DX005 (ip), vehicle: Klucel (hydroxypropylcellulose) (HPC)); 98 % of control (endpoint: median survival time, dose: 25.0 mg/kg/injection, schedule: Q01DX005 (ip), vehicle: Klucel (hydroxypropylcellulose) (HPC)); 102 % of control (endpoint: median survival time, dose: 50.0 mg/kg/injection, schedule: Q01DX005 (ip), vehicle: Klucel (hydroxypropylcellulose) (HPC)); 97 % of control (endpoint: median survival time, dose: 100.0 mg/kg/injection, schedule: Q01DX005 (ip), vehicle: Klucel (hydroxypropylcellulose) (HPC)).
Consider `Cc1ccc(S(=O)(=O)CN(O)C(N)=O)cc1`, for which the T/C was 93 % of control (endpoint: mean survival time, dose: 7.5 mg/kg/injection, schedule: Q01DX009 (ip), vehicle: saline with Tween-80); 102 % of control (endpoint: mean survival time, dose: 15.0 mg/kg/injection, schedule: Q01DX009 (ip), vehicle: saline with Tween-80); 93 % of control (endpoint: mean survival time, dose: 30.0 mg/kg/injection, schedule: Q01DX009 (ip), vehicle: saline with Tween-80); 107 % of control (endpoint: mean survival time, dose: 60.0 mg/kg/injection, schedule: Q01DX009 (ip), vehicle: saline with Tween-80); 105 % of control (endpoint: mean survival time, dose: 120.0 mg/kg/injection, schedule: Q01DX009 (ip), vehicle: saline with Tween-80); 115 % of control (endpoint: mean survival time, dose: 240.0 mg/kg/injection, schedule: Q01DX009 (ip), vehicle: saline with Tween-80).
For the compound `COC1OC2COc3ccccc3OC2C(NC#N)C1OC(C)=O` (stereo not drawn), the T/C (endpoint: mean survival time, dose: 100.0 mg/kg/injection, schedule: Q01DX001 (ip), vehicle: saline with Tween-80) is 101 % of control; the T/C (endpoint: mean survival time, dose: 200.0 mg/kg/injection, schedule: Q01DX001 (ip), vehicle: saline with Tween-80) was 100 % of control; the T/C (endpoint: mean survival time, dose: 400.0 mg/kg/injection, schedule: Q01DX001 (ip), vehicle: saline with Tween-80) was 100 % of control.
In the case of `NC(=O)OCCc1ccccc1`, the T/C was 94 % of control under setting [8] and 102 % of control under setting [9].
With `CC(C)(C)N1C2CCCC21` (stereo not drawn), the T/C is, setting by setting: (endpoint: mean survival time, dose: 5.0 mg/kg/injection, schedule: Q01DX001 (ip), vehicle: saline) 106 % of control; (endpoint: mean survival time, dose: 5.0 mg/kg/injection, schedule: Q01DX009 (ip), vehicle: saline) 102 % of control; (endpoint: mean survival time, dose: 10.0 mg/kg/injection, schedule: Q01DX001 (ip), vehicle: saline) 106 % of control; (endpoint: mean survival time, dose: 10.0 mg/kg/injection, schedule: Q01DX009 (ip), vehicle: saline) 102 % of control; (endpoint: mean survival time, dose: 20.0 mg/kg/injection, schedule: Q01DX001 (ip), vehicle: saline) 95 % of control; (endpoint: mean survival time, dose: 20.0 mg/kg/injection, schedule: Q01DX009 (ip), vehicle: saline) 100 % of control.
For `CC(=O)OCc1cc(C(C)(C)C)c(O)c(C(C)(C)C)c1`, the T/C under setting [8] is 101 % of control; the T/C under setting [9] is 116 % of control; the T/C (endpoint: mean survival time, dose: 400.0 mg/kg/injection, schedule: Q04DX003 (ip), vehicle: Klucel (hydroxypropylcellulose) (HPC)) was 115 % of control.
For the compound `C=[CH][Pb]([CH]=C)([O]C(=O)C(C)C)[O]C(=O)C(C)C`, the T/C by setting is: (endpoint: mean survival time, dose: 5.0 mg/kg/injection, schedule: Q01DX009 (ip), vehicle: saline with Tween-80) 93 % of control; (endpoint: mean survival time, dose: 10.0 mg/kg/injection, schedule: Q01DX009 (ip), vehicle: saline with Tween-80) 95 % of control.
As for `[Cl][Pt+2][Cl].[NH-]C1CCC1[NH-]` (stereo not drawn), the T/C (endpoint: median survival time, dose: 2.5 mg/kg/injection, schedule: Q04DX003 (ip), vehicle: Klucel (hydroxypropylcellulose) (HPC)) was 111 % of control; the T/C (endpoint: median survival time, dose: 10.0 mg/kg/injection, schedule: Q04DX003 (ip), vehicle: Klucel (hydroxypropylcellulose) (HPC)) is 156 % of control and 158 % of control; the T/C (endpoint: median survival time, dose: 20.0 mg/kg/injection, schedule: Q04DX003 (ip), vehicle: Klucel (hydroxypropylcellulose) (HPC)) is 177 % of control.
As to `CC(C)(O)C1CC2C=CC1C2` (stereo not drawn), the T/C runs as follows: under setting [5], 98 % of control; under setting [6], 102 % of control; under setting [7], 94 % of control.
